The text below walks through data of PubChem BioAssay (NCI).

Structures are written as SMILES.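 Five compound concentrations were applied to cells in 96-well plates for 48 hours; endpoints were derived by simple linear interpolation of the resulting dose-response curve. Definition used: TGI = concentration required for complete inhibition of growth.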

Test systems include DU-145 prostate; COLO 205 colon; RPMI-8226 leukemia; TK-10 renal; NCI-H460 lung; UACC-257 melanoma; NCI-H226 lung; NCI-H23 lung; UACC-62 melanoma; HCC-2998 colon; NCI/ADR-RES ovarian; IGROV1 ovarian; UO-31 renal; SNB-75 CNS; K-562 leukemia; SF-539 CNS; EKVX NSCLC.
What all share (assay): NCI-60 cell line screen, 48 h

As to `O=C1CCCN1C(=O)CS(=O)(=O)c1ccccc1`, the TGI in the test on DU-145 prostate, in the test on COLO 205 colon, in the test on RPMI-8226 leukemia, with TK-10 renal, in the test on NCI-H460 lung and in the test with UACC-257 melanoma was above 100 µM each time. The TGI with NCI-H226 lung, in the test on NCI-H23 lung, in the test on UACC-62 melanoma, in the test with HCC-2998 colon, with NCI/ADR-RES ovarian and in the test on IGROV1 ovarian was above 100 µM each time. Further, the TGI in the test on UO-31 renal, in the test with SNB-75 CNS and in the test on K-562 leukemia was above 100 µM each time.
As to `CNC(=O)C1(N)c2ccccc2C=Cc2ccccc21`, the TGI with DU-145 prostate, in the test on COLO 205 colon, with RPMI-8226 leukemia, in the test with TK-10 renal, with NCI-H226 lung and with NCI-H23 lung was above 100 µM each time. Besides, the TGI in the test with UACC-62 melanoma, in the test on SF-539 CNS, in the test with NCI/ADR-RES ovarian, with IGROV1 ovarian, with EKVX NSCLC and with UO-31 renal was above 100 µM each time. The same molecule registered a TGI in the test on K-562 leukemia above 100 µM.
As for `C=CC[C@@H](N)C(=O)N(C)[C@@H](C)[C@@H](O)c1ccccc1`, the TGI with DU-145 prostate, in the test with COLO 205 colon, in the test on TK-10 renal, in the test with NCI-H460 lung, in the test on UACC-257 melanoma and in the test on NCI-H226 lung was above 100 µM throughout. Also, the TGI in the test on NCI-H23 lung, in the test on UACC-62 melanoma, in the test on SF-539 CNS, with NCI/ADR-RES ovarian, in the test on IGROV1 ovarian and in the test with UO-31 renal was above 100 µM throughout. Besides, the TGI with SNB-75 CNS is above 100 µM.
On to `O=[N+]([O-])c1cccc2nnccc12`, for which the TGI with DU-145 prostate is above 100 µM; with COLO 205 colon it was 34.1 µM; in the test on RPMI-8226 leukemia, above 100 µM; in the test with TK-10 renal, above 100 µM; with NCI-H460 lung it was 42.2 µM; with UACC-257 melanoma, 39.9 µM. The TGI is 58 µM in the test with NCI-H226 lung; above 100 µM in the test on NCI-H23 lung; 34.2 µM with UACC-62 melanoma; above 100 µM in the test with SF-539 CNS; above 100 µM in the test with NCI/ADR-RES ovarian; above 100 µM with IGROV1 ovarian. In addition, the TGI in the test with EKVX NSCLC is above 100 µM; with UO-31 renal, 95.4 µM; with SNB-75 CNS, above 100 µM; in the test with K-562 leukemia, above 100 µM.
With `CSc1nc2c(c(=O)[nH]1)N=C(c1ccc([N+](=O)[O-])cc1)CC(c1ccccc1)N2` (centres undefined), the TGI with DU-145 prostate is above 100 µM; with COLO 205 colon, above 100 µM; with RPMI-8226 leukemia it was 57.5 µM; in the test on UACC-257 melanoma, above 100 µM; in the test on NCI-H226 lung, above 100 µM; in the test on NCI-H23 lung it was above 100 µM. Also, the TGI is above 100 µM in the test with UACC-62 melanoma; 76.2 µM in the test with SF-539 CNS; 57.7 µM with HCC-2998 colon; above 100 µM in the test on NCI/ADR-RES ovarian; above 100 µM with IGROV1 ovarian; above 100 µM in the test with EKVX NSCLC. Also, the TGI in the test with UO-31 renal is above 100 µM; in the test with SNB-75 CNS it was 74.7 µM; with K-562 leukemia, above 100 µM.
Regarding `O=C1OCC2OC(=O)c3cc(O)c(O)c(O)c3-c3c(O)c(O)c(O)c4c3C(=O)OC(C2OC(=O)c2cc(O)c(O)c(O)c2-c2c1cc(O)c(O)c2O)C1OC(=O)c2c-4c(O)c(O)c(O)c2[C@@H]1C(O)C(O)C(O)C(O)CO` (some centres undefined), the TGI in the test on DU-145 prostate stood at 47.5 µM; in the test on COLO 205 colon, 30.4 µM; in the test with RPMI-8226 leukemia, 73.8 µM; in the test with NCI-H460 lung, 39.5 µM; with UACC-257 melanoma, 46.7 µM; with NCI-H226 lung it was 42.6 µM. The TGI in the test with NCI-H23 lung turned out to be 43.5 µM; in the test with UACC-62 melanoma, 36.7 µM; in the test with HCC-2998 colon it was 64.2 µM; in the test with NCI/ADR-RES ovarian, 66.1 µM; with IGROV1 ovarian, 40.6 µM; in the test on EKVX NSCLC it was 51.1 µM. Moreover, the TGI amounted to 33.8 µM with UO-31 renal and 33.3 µM with K-562 leukemia.
For `COc1cc2c(c(OC)c1)/C(=C/Sc1ccccc1)C(=O)N(C(C)(C)C)C2`, the TGI is above 100 µM in the test on DU-145 prostate; 50.6 µM with COLO 205 colon; 94.5 µM in the test with RPMI-8226 leukemia; above 100 µM with TK-10 renal; 85.3 µM in the test on UACC-257 melanoma; above 100 µM in the test on NCI-H226 lung. Also, the TGI in the test with NCI-H23 lung is 77.1 µM; with UACC-62 melanoma it was 90 µM; in the test with SF-539 CNS, above 100 µM; in the test on HCC-2998 colon, above 100 µM; in the test on NCI/ADR-RES ovarian, 56.7 µM; with IGROV1 ovarian, 82.8 µM. The TGI in the test with EKVX NSCLC and in the test on K-562 leukemia was above 100 µM each time.
As to `O=C(NNCC(O)COc1ccccc1)c1ccccc1` (centres undefined), the TGI in the test on DU-145 prostate, in the test with COLO 205 colon, with RPMI-8226 leukemia, in the test with TK-10 renal, in the test with UACC-257 melanoma and in the test on NCI-H226 lung was above 100 µM in each case. The TGI with NCI-H23 lung, with UACC-62 melanoma, with SF-539 CNS, in the test with HCC-2998 colon, in the test on NCI/ADR-RES ovarian and in the test on IGROV1 ovarian was above 100 µM throughout. The TGI in the test with EKVX NSCLC, with UO-31 renal, with SNB-75 CNS and in the test on K-562 leukemia was above 100 µM each time.
In the case of `NC(N)=NCCCC(NC(=O)c1cccc2c(=O)c3ccccc3[nH]c12)C(=O)O` (centres undefined), the TGI with DU-145 prostate, with COLO 205 colon, in the test on RPMI-8226 leukemia, with TK-10 renal, in the test with NCI-H226 lung and in the test with NCI-H23 lung was above 100 µM throughout. The TGI in the test on UACC-62 melanoma, in the test with NCI/ADR-RES ovarian, in the test on IGROV1 ovarian, with EKVX NSCLC, with UO-31 renal and with SNB-75 CNS was above 100 µM throughout. In the test on K-562 leukemia, the TGI is above 100 µM.
